Data: ChEMBL document CHEMBL5376027, “Discovery of 5-trifluoromethyl-2-aminopyrimidine derivatives as potent dual inhibitors of FLT3 and CHK1” (RSC Med Chem, 2024)
Activity calls are given as the source filed them. The calls are words filed in the database; no cut-off is given here.

How the values were obtained:
[1] = target: T1, Serine/threonine-protein kinase Chk1 (Homo sapiens, UniProt O14757)
T1 sequence (O14757 whole entry): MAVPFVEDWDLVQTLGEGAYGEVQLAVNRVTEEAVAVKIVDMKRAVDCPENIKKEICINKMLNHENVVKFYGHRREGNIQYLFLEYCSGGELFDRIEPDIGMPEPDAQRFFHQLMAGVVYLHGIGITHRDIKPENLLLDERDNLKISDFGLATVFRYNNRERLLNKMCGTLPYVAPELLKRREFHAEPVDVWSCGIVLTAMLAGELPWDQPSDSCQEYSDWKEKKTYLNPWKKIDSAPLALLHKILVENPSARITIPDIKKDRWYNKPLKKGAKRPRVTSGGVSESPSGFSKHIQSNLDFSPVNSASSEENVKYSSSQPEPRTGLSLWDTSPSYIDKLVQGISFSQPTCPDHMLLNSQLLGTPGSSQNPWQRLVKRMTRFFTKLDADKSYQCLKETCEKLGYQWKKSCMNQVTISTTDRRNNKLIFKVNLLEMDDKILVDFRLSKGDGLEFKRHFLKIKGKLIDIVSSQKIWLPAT
Description: Inhibition of CHK1 (unknown origin) using peptide substrate incubated for 1 hrs in presence of ATP by fluorescence microplate reader analysis

[2] = target: hERG (KCNH2) (Homo sapiens, UniProt Q12809); assay: Inhibition of hERG expressed in HEK293 cells at 10 uM incubated by patch clamp assay relative to control; format: toxicity, cell-based; settings: HEK293 cells that express hERG
Chain of hERG (KCNH2) (Q12809 whole entry): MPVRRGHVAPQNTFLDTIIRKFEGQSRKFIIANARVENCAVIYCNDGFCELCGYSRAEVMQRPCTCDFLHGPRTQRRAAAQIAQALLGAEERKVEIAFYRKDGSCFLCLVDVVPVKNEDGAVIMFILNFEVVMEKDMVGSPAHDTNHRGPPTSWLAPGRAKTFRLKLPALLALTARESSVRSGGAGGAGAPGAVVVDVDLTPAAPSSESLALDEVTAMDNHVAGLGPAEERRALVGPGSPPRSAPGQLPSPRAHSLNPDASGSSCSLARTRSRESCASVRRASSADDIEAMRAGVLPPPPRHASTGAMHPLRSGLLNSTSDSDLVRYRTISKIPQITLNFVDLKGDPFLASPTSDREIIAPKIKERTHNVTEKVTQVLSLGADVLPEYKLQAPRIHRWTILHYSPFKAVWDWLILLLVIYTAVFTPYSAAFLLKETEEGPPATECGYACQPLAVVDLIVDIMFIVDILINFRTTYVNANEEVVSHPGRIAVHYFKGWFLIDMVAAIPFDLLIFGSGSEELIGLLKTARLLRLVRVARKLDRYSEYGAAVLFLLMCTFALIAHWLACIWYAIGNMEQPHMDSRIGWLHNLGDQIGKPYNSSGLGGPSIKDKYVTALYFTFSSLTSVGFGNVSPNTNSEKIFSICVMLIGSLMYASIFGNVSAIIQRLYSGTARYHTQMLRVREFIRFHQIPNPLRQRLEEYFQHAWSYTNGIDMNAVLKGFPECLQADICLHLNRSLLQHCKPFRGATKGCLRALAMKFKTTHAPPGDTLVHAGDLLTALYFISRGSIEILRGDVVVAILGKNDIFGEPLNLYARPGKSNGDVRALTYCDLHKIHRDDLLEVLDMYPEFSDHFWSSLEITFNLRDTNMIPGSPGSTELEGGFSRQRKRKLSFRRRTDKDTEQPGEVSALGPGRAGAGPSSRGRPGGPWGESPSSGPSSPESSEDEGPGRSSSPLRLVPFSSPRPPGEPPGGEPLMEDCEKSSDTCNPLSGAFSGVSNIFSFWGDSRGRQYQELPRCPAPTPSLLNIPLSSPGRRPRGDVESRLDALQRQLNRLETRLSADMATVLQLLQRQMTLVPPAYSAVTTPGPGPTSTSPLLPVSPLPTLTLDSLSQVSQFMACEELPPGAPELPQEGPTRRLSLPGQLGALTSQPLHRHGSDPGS

[3] = target: Mast/stem cell growth factor receptor Kit (Homo sapiens, UniProt P10721)
Chain of Mast/stem cell growth factor receptor Kit (P10721 whole entry): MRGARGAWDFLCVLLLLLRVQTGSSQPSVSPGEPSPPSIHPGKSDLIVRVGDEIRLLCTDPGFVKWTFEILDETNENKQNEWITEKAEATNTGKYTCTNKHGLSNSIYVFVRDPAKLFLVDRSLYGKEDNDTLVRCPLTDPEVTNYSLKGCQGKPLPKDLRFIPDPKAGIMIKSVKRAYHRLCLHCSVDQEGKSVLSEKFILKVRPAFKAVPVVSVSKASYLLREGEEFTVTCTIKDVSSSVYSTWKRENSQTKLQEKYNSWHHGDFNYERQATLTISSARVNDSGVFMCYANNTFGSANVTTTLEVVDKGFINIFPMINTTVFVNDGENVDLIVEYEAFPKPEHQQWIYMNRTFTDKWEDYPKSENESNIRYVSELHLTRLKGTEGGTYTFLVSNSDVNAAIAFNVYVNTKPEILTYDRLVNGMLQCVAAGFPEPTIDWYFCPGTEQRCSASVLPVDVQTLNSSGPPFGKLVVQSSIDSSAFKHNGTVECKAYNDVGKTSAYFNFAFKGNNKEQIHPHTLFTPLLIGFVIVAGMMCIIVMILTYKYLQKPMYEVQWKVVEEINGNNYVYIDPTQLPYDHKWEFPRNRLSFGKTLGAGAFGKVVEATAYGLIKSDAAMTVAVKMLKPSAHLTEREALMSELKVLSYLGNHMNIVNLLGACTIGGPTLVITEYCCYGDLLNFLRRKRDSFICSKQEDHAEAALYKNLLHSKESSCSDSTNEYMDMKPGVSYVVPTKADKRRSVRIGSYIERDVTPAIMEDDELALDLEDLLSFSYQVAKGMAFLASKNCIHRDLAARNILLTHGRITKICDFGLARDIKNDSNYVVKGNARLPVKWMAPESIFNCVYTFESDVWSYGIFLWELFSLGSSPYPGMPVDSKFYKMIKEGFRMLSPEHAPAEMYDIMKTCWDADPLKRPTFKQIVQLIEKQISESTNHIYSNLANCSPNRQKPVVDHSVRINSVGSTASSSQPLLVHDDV
Description: Inhibition of c-kit (unknown origin) using peptide substrate incubated for 1 hrs in presence of ATP by fluorescence microplate reader analysis

[4] = target: T2, Aurora kinase A (Homo sapiens, UniProt O14965); assay: Inhibition of Aurora A (unknown origin) expressed in Escherichia coli using peptide substrate incubated for 1 hrs in presence of ATP by fluorescence microplate reader
T2 sequence (O14965 whole entry): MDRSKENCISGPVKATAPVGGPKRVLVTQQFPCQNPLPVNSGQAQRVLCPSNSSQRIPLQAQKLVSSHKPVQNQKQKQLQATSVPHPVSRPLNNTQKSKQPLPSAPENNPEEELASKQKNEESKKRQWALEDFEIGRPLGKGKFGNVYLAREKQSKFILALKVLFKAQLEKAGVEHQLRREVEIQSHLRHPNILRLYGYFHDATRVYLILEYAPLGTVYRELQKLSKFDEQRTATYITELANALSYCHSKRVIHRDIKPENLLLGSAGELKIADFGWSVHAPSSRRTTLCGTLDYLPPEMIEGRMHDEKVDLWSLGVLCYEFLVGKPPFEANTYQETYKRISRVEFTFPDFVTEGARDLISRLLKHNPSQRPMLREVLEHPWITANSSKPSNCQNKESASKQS

[5] = target: T3, Tyrosine-protein kinase JAK3 (Homo sapiens, UniProt P52333); assay: Inhibition of JAK3 (unknown origin) using peptide substrate incubated for 1 hrs in presence of ATP by fluorescence microplate reader
T3 sequence (P52333 whole entry): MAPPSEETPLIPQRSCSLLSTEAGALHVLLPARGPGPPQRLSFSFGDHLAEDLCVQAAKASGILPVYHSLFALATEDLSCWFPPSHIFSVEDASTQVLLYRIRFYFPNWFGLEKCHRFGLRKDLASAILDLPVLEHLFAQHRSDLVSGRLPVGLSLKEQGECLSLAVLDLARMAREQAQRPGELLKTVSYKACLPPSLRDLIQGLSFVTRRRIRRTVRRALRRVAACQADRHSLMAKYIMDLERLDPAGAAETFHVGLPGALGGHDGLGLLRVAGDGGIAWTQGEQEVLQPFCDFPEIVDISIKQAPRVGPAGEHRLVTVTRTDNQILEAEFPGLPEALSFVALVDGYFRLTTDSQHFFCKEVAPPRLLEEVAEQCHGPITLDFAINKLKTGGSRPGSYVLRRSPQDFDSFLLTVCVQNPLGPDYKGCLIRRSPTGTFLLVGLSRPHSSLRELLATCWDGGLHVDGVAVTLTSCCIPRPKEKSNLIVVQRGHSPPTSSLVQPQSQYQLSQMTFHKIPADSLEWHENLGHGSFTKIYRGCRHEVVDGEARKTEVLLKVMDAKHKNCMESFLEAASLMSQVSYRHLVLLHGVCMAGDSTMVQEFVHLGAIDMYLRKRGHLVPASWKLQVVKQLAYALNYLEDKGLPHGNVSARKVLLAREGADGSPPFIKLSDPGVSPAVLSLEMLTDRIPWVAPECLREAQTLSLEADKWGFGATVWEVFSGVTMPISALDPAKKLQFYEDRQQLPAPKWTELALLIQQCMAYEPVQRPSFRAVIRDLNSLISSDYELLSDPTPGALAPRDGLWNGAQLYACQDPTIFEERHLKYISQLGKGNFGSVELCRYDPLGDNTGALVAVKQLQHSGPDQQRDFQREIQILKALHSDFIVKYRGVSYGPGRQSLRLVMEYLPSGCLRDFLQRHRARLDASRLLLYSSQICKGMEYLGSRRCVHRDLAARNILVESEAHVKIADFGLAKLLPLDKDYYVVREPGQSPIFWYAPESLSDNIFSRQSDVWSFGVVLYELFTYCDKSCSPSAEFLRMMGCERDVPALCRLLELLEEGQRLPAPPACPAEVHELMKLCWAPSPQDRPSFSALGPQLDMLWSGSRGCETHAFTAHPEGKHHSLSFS

[6] = target: T4, Serine/threonine-protein kinase Chk1 (Homo sapiens) (UniProt O14757); settings: MV4-11, dose 50-200 nM
T4 sequence (whole entry): T1 sequence (O14757 whole entry)
Description: Inhibition of CHK1 phosphorylation at S296 residue in human MV4-11 cells at 50 to 200 nM by Western blot analysis

[7] = target: Serine/threonine-protein kinase pim-1 (Homo sapiens, UniProt P11309); assay: Inhibition of PIM1 (unknown origin) using peptide substrate incubated for 1 hrs in presence of ATP by fluorescence microplate reader
Chain of Serine/threonine-protein kinase pim-1 (P11309 whole entry): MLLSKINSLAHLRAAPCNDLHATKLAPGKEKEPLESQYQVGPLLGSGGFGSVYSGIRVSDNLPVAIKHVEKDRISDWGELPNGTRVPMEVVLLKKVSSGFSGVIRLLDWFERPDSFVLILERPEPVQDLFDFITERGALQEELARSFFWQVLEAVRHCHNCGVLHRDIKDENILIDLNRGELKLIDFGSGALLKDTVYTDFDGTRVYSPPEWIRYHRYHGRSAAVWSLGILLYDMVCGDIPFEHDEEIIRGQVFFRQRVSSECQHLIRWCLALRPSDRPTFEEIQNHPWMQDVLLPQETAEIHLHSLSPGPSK

[8] = target: T4, Serine/threonine-protein kinase Chk1 (Homo sapiens); settings: MV4-11, dose 50-200 nM; remark: listed apart in the source
Description: Inhibition of CHK1 in human MV4-11 cells assessed as decrease in c-Myc protein expression level at 50 to 200 nM by Western blot analysis

[9] = target: Ribosomal protein S6 kinase; assay: Inhibition of p70S6K (unknown origin) using peptide substrate incubated for 1 hrs in presence of ATP by fluorescence microplate reader; format: protein assay, Homo sapiens
[10] = target: T5, Interleukin-1 receptor-associated kinase 4 (Homo sapiens, UniProt Q9NWZ3); assay: Inhibition of IRAK4 (unknown origin) using peptide substrate incubated for 1 hrs in presence of ATP by fluorescence microplate reader
T5 sequence (Q9NWZ3 whole entry): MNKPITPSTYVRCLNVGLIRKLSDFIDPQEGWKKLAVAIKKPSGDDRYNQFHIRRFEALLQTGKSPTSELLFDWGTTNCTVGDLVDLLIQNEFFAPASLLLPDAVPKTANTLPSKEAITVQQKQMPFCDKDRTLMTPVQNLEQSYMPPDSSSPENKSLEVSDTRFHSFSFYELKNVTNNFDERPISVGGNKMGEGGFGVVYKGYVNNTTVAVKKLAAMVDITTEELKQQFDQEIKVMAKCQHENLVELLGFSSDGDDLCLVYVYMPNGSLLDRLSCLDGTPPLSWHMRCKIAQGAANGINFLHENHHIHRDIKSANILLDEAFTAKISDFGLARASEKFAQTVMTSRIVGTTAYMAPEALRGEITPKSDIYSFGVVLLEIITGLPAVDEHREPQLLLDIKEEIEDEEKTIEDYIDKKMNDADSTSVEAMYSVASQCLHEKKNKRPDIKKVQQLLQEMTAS

[11] = target: Cyclin-dependent kinase 2 (Homo sapiens, UniProt P24941); assay: Inhibition of CDK2 (unknown origin) incubated for 1 hrs by fluorescence microplate reader
[12] = target: Tyrosine-protein kinase BTK (Homo sapiens, UniProt Q06187); assay: Inhibition of BTK (unknown origin) using peptide substrate incubated for 1 hrs in presence of ATP by fluorescence microplate reader
Chain of Tyrosine-protein kinase BTK (Q06187 whole entry): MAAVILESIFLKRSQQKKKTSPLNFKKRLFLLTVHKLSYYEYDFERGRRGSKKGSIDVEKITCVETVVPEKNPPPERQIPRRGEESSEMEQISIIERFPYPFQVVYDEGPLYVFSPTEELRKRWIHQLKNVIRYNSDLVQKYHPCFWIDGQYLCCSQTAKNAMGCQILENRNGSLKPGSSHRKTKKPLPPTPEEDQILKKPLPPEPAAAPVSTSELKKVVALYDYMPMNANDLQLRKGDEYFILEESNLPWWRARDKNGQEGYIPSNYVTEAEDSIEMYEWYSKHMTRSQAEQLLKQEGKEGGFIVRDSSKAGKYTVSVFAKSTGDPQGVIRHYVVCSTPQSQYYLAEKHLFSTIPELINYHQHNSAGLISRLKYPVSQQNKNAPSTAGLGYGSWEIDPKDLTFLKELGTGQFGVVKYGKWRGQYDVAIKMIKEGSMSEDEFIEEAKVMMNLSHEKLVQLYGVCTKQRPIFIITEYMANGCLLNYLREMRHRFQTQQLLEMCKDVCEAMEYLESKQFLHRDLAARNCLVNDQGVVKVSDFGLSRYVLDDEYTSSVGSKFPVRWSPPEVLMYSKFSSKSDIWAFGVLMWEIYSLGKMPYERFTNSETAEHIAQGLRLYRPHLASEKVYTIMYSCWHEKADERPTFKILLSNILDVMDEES

[13] = target: T6, Serine/threonine-protein kinase 17B (Homo sapiens, UniProt O94768); assay: Inhibition of DRAK2 (unknown origin) expressed in Escherichia coli incubated for 2 hrs by ADP-Glo assay
T6 sequence (O94768 whole entry): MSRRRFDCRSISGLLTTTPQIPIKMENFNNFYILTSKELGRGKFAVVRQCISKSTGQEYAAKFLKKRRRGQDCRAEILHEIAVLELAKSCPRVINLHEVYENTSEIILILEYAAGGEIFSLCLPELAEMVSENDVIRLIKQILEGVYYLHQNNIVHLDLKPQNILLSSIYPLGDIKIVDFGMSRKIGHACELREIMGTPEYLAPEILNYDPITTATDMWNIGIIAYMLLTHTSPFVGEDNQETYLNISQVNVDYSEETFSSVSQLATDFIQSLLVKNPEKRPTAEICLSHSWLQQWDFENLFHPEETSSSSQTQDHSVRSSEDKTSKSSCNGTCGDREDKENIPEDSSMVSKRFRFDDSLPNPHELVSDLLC

[14] = target: Epidermal growth factor receptor (Homo sapiens, UniProt P00533); assay: Inhibition of EGFR (unknown origin) using peptide substrate incubated for 1 hrs in presence of ATP by fluorescence microplate reader
Chain of Epidermal growth factor receptor (P00533 whole entry): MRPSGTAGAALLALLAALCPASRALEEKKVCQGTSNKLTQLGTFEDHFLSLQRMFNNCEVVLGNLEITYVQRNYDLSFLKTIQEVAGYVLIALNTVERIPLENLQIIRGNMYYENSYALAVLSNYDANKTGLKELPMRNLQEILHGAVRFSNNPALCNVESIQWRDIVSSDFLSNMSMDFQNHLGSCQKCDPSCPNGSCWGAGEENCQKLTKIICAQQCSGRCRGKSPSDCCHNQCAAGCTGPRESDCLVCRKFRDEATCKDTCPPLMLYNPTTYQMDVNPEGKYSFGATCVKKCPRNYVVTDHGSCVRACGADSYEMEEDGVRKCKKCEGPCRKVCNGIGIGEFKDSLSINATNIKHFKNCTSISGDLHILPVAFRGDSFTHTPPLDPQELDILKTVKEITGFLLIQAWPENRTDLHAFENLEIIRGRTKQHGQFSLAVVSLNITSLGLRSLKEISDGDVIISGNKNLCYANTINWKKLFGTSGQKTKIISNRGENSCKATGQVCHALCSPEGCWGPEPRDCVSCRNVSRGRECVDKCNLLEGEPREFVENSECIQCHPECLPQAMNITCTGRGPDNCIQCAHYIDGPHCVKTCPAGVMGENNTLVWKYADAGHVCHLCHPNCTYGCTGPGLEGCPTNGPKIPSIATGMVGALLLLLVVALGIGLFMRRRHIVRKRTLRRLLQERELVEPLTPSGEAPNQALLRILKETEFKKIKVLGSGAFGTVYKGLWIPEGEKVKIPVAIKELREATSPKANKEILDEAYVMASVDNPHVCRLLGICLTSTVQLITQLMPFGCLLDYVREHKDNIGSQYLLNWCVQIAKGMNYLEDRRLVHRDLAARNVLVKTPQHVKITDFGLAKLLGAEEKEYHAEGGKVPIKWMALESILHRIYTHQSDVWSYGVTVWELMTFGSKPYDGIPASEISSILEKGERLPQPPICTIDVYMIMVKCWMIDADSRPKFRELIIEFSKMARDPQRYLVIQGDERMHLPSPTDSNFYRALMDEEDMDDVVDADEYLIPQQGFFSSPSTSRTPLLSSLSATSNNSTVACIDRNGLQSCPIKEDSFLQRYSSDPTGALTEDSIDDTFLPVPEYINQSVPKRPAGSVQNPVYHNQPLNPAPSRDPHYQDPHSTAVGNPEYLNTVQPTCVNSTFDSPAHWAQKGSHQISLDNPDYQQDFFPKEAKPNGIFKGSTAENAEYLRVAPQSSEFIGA

| IC50 [1] [nM] | IC50 [3] [nM] | SMILES | inhibition at 10 µM [2] [%] | further results |
| --- | --- | --- | --- | --- |
| 144 |  | NCCCNc1nc(Nc2ccc3c(c2)CCC3=O)ncc1C(F)(F)F |  |  |
| 100 |  | NCCCNc1nc(Nc2ccc3c(c2)CCN(S(=O)(=O)C2CCCCC2)C3)ncc1C(F)(F)F |  |  |
| 38.6 | 10900 | NCCCNc1nc(Nc2ccc3c(c2)CCCC3=O)ncc1C(F)(F)F | 76.1 |  |
| 183 |  | CS(=O)(=O)N1CCOc2cc(Nc3ncc(C(F)(F)F)c(NCCCN)n3)ccc21 |  |  |
| 166 |  | NCCCNc1nc(Nc2ccc3c(c2)CCCN3S(=O)(=O)c2ccccc2)ncc1C(F)(F)F |  |  |
| 104 |  | NCCCNc1nc(Nc2ccc3c(c2)CCS3(=O)=O)ncc1C(F)(F)F |  |  |
| 28.9 | 9810 | CS(=O)(=O)N1CCCc2cc(Nc3ncc(C(F)(F)F)c(NCCCN)n3)ccc21 | 64.2 |  |
| 237 |  | NCCCNc1nc(Nc2ccc3c(c2)OCO3)ncc1C(F)(F)F |  |  |
| 93.6 |  | NCCCNc1nc(Nc2ccc3c(c2)COC3=O)ncc1C(F)(F)F |  |  |
| 89.3 |  | CC(=O)c1ccc(Nc2ncc(C(F)(F)F)c(NCCCN)n2)cc1 |  |  |
| 35.2 | 21300 | CS(=O)(=O)N1Cc2ccc(Nc3ncc(C(F)(F)F)c(NCCCN)n3)cc2C1 | 23.2 |  |
| 133 |  | NCCCNc1nc(Nc2ccc3c(c2)CCN(S(=O)(=O)c2ccccc2)C3)ncc1C(F)(F)F |  |  |
| 25.6 | 10500 | CS(=O)(=O)N1CCc2cc(Nc3ncc(C(F)(F)F)c(NCCCN)n3)ccc2C1 | 36.1 | IC50 [4]: 1860 nM; IC50 [5]: > 10000 nM; inhibition [6]: Active; IC50 [7]: > 10000 nM; inhibition [8]: Active; IC50 [9]: 834.85 nM; IC50 [10]: 865 nM; IC50 [11]: 833 nM; IC50 [12]: > 10000 nM; IC50 [13]: > 10000 nM; IC50 [14]: > 10000 nM |
| 32.5 | 12300 | CS(=O)(=O)N1CCc2cc(Nc3ncc(C(F)(F)F)c(NCCCN)n3)ccc21 | 39.5 |  |
